Test results taken from publication PMC10518257 (Nature Cancer, 2023).
“And” between values parts separate entries of the source, which are not always exact repeats. Identical values can stand only once.

Tests used:
[1] = target: T1, panel of 255 (vepafestinib) or 256 (all other inhibitors) recombinant kinases (Homo sapiens, UniProt O14757); assay: Kinase selectivity profiling at a single concentration (Carna Biosciences); type: biochemical; settings: 23 nM
T1 construct: purchased Carna Biosciences
T1 sequence (O14757 whole entry): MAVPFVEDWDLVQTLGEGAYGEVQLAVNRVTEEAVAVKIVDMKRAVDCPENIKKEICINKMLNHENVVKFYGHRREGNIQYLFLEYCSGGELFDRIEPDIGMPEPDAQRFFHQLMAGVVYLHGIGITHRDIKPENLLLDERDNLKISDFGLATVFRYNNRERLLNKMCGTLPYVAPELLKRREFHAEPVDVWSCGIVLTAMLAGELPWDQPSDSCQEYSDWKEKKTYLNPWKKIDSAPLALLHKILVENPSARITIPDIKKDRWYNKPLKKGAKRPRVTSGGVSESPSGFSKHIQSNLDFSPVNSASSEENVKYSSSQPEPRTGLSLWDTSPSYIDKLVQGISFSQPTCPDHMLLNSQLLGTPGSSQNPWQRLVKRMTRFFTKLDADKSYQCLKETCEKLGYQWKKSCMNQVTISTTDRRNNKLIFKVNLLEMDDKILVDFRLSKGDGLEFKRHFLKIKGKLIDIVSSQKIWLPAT

[2] = target: T2, panel of 255 (vepafestinib) or 256 (all other inhibitors) recombinant kinases (Homo sapiens, UniProt P35968); assay: as above; type: biochemical; settings: 23 nM
T2 construct: purchased Carna Biosciences
T2 sequence (P35968 20-1356): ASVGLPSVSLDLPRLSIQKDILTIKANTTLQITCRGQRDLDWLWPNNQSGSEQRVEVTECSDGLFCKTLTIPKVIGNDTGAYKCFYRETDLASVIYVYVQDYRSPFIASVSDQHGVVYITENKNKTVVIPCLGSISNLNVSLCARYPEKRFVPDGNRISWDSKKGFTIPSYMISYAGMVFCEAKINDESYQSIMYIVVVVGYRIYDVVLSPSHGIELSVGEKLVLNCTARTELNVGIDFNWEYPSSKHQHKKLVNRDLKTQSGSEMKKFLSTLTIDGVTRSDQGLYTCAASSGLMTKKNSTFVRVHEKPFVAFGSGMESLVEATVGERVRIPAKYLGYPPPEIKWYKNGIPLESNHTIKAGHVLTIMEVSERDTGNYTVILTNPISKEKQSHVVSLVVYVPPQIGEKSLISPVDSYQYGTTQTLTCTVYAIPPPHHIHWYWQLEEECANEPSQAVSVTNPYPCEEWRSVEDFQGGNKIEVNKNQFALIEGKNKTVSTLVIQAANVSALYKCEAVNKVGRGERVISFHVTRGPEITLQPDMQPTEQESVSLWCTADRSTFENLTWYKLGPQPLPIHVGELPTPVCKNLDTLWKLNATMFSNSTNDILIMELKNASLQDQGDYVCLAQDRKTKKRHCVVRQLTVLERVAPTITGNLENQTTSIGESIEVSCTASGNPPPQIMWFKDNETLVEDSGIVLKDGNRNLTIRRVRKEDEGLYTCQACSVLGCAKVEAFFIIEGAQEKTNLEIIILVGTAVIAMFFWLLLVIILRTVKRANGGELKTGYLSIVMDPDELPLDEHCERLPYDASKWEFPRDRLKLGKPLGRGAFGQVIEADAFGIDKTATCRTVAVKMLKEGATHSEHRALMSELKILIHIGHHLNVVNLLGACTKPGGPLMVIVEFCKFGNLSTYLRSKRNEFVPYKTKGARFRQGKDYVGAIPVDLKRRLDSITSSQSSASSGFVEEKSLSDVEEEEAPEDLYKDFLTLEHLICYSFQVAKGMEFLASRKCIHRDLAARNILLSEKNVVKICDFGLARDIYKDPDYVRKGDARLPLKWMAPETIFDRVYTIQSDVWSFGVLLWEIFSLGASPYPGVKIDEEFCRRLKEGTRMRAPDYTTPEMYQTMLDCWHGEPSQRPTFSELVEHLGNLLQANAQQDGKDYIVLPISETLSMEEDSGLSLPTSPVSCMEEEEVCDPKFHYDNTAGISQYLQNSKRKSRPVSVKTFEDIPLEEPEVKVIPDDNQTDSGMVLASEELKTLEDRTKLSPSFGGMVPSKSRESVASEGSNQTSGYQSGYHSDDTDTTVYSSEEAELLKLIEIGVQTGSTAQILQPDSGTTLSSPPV

[3] = target: T3, panel of 255 (vepafestinib) or 256 (all other inhibitors) recombinant kinases (Homo sapiens, UniProt Q06418); assay: as above; type: biochemical; settings: 23 nM
T3 construct: purchased Carna Biosciences
T3 sequence (Q06418 41-890): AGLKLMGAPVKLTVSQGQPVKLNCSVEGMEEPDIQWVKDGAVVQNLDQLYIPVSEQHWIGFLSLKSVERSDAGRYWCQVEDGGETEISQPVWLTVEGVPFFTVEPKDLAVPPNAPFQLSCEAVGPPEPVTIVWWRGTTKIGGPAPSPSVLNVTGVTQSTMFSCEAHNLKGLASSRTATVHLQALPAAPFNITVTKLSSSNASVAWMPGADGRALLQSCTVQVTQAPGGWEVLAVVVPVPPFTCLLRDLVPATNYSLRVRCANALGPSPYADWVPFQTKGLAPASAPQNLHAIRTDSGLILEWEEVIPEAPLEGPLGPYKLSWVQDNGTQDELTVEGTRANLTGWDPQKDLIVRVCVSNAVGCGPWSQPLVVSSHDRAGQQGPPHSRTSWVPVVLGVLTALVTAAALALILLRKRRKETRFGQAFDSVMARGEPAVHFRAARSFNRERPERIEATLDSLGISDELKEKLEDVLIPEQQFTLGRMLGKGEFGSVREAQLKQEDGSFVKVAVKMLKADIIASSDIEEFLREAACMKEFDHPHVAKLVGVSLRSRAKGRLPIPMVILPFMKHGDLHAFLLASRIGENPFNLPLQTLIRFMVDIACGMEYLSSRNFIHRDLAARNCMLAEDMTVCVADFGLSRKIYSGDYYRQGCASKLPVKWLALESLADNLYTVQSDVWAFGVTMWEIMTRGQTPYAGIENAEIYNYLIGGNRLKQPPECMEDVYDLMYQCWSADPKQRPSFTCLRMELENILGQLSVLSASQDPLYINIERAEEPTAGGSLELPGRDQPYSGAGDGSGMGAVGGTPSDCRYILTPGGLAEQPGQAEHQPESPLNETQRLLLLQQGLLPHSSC

[4] = target: T4, panel of 255 (vepafestinib) or 256 (all other inhibitors) recombinant kinases (Homo sapiens, UniProt Q15375); assay: as above; type: biochemical; settings: 23 nM
T4 construct: purchased Carna Biosciences
T4 sequence (Q15375 28-998): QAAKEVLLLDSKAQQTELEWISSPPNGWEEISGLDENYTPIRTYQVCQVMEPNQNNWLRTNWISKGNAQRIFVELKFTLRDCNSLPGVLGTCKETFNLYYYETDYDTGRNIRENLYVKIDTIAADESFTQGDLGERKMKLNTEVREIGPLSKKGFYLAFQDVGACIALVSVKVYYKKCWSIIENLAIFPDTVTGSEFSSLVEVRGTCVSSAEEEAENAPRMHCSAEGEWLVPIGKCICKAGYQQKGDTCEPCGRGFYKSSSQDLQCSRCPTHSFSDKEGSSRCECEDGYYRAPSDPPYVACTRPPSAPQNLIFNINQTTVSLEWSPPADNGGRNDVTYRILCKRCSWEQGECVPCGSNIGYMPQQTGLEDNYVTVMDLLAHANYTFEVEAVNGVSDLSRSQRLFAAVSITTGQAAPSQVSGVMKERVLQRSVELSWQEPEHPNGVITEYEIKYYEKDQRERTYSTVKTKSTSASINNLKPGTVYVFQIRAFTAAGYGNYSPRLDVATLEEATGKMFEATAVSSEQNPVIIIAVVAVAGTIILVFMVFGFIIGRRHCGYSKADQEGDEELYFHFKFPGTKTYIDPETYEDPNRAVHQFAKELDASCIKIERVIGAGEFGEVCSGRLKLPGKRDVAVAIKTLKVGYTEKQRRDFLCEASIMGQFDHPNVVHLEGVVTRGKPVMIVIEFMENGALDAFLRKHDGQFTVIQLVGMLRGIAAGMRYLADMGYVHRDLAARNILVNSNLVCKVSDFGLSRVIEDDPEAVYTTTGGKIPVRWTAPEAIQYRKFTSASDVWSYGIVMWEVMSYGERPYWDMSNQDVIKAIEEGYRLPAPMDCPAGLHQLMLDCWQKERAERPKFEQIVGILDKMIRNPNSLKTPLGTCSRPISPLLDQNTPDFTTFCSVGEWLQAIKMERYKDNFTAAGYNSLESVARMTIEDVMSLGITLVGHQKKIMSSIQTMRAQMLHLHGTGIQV

[5] = target: T5, panel of 255 (vepafestinib) or 256 (all other inhibitors) recombinant kinases (Homo sapiens, UniProt Q15759); assay: as above; type: biochemical; settings: 23 nM
T5 construct: purchased Carna Biosciences
T5 sequence (Q15759 whole entry): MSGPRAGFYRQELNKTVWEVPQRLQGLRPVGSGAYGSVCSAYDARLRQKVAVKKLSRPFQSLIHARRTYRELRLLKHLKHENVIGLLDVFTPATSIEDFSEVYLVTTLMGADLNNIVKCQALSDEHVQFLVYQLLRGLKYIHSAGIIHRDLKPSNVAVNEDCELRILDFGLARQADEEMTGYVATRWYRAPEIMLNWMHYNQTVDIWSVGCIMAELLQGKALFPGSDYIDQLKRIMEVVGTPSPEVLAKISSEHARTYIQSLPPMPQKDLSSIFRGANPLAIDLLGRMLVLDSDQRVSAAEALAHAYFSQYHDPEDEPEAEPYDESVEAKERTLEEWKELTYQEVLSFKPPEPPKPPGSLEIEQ

[6] = tested on: Ba/F3 cells expressing KIF5B–RET^G810C; assay: Growth inhibition assay in Ba/F3 cells (CellTiter-Glo, 72 h); type: cell-based; settings: Ba/3-KIF5B-RET-G810C; replicate Sets 1-3
[7] = tested on: Ba/F3 cells expressing KIF5B–RET^V804L; assay: as above; type: cell-based; settings: replicate sets
[8] = tested on: HBECp53-RET cells (CCDC6-RET fusion); assay: Growth inhibition (alamarBlue, 96 h); type: cell-based, human; settings: for raw viability signal (Source Data Fig. 3b-c): HBEC-RET, replicate sets
[9] = tested on: ECLC5 luciferase cells implanted intracranially; assay: Intracranial efficacy study; type: in vivo, NSG mice; settings: for Luminescence Data: Fig. 8e ECLC5 intracranial, 50 mg/kg BID, individual animals
in vivo = settings: male, BALB/c, mouse, in vivo, po, 50 mg/kg
LUAD-0057AS1 PDX = assay: PDX efficacy study

## COCc1ccc(NC(=O)c2c(C#CCN3CCOCC3)n(C3(C)CC3)c3ncnc(N)c23)cc1 [Vepafestinib, 4-amino-N-[4-(methoxymethyl)phenyl]-7-(1-methylcyclopropyl)-6-[3-(morpholin-4-yl)prop-1-yn-1-yl]-7H-pyrrolo[2,3-d]pyrimidine-5-carboxamide]
[1]
  % Inhibiton CHK1: 11.9%
[2]
  % Inhibiton KDR: 36%
[3]
  % Inhibiton TYRO3: 8.6%
[4]
  % Inhibiton EPHA7: 10.4%
[5]
  % Inhibiton p38β: 7%
[6]
  GI50: 14.5 nM
[7]; Ba/3-KIF5B-RET-V804L
  GI50: 21.4 nM
[7]; Mus musculus, BaF3, Ba/3-KIF5B-RET-V804L
  GI50: 25.9 nM
[8]; 0.01 nM
  raw viability signal (Source Data Fig. 3b-c): 18957.1 and 8244.84 and 10678.9 and 16541.7
[8]; 0.1 nM
  raw viability signal (Source Data Fig. 3b-c): 17482 and 10966 and 10873.4 and 16651.3
[8]; 1 nM
  raw viability signal (Source Data Fig. 3b-c): 17298.8 and 10767.5 and 11130.6 and 16468.7
[8]; 10 nM
  raw viability signal (Source Data Fig. 3b-c): 5536.96 and 10230.4 and 9156.41 and 16208.5
[8]; 100 nM
  raw viability signal (Source Data Fig. 3b-c): 4544.29 and 6087.71 and 3084.29 and 6640.5
[8]; 1000 nM
  raw viability signal (Source Data Fig. 3b-c): 2966.02 and 1973.98 and 3130.94 and 5863.55
[8]; 10000 nM
  raw viability signal (Source Data Fig. 3b-c): 3124.48 and 1006.63 and 1869.57 and 4627.96
[8]; Homo sapiens, 96 h, read-out: IC50 for Inhibition of Growth (95% CI), HBECp53-RET, alamarBlue, 96 h
  IC50: 65 nM
[9]; 50 mg per kg BID, all animals alive
  survival time: > 139 d of treatment
[9]; treatment day 0 (=1)
  Luminescence Data: 1
[9]; treatment day 5, day 0 = 1, 50 mg/kg
  Luminescence Data: 0.4116 and 0.5677 and 0.6168 and 0.1116 and 0.9191 and 0.3141
[9]; treatment day 12, day 0 = 1, 50 mg/kg
  Luminescence Data: 0.3041 and 0.6223 and 0.3951 and 0.05187 and 0.856 and 0.4174
[9]; treatment day 18, day 0 = 1, 50 mg/kg
  Luminescence Data: 0.3959 and 0.7406 and 0.6024 and 0.03931 and 0.9545 and 0.2802
[9]; treatment day 26, day 0 = 1, 50 mg/kg
  Luminescence Data: 0.3977 and 0.5749 and 0.4469 and 0.01537 and 0.7719 and 0.2517
[9]; treatment day 33, day 0 = 1, 50 mg/kg
  Luminescence Data: 0.4164 and 0.7522 and 0.6219 and 0.01856 and 1.136 and 0.285
[9]; treatment day 40, day 0 = 1, 50 mg/kg
  Luminescence Data: 0.3201 and 0.5375 and 0.4135 and 0.01963 and 0.792 and 0.1799
[9]; treatment day 46, day 0 = 1, 50 mg/kg
  Luminescence Data: 0.3305 and 0.5368 and 0.3264 and 0.008566 and 0.9694 and 0.2044
[9]; treatment day 55, day 0 = 1, 50 mg/kg
  Luminescence Data: 0.516 and 0.834 and 0.6149 and 0.01696 and 1.167 and 0.3646
[9]; treatment day 61, day 0 = 1, 50 mg/kg
  Luminescence Data: 0.3872 and 0.6582 and 0.5284 and 0.01449 and 1.158 and 0.246
[9]; treatment day 68, day 0 = 1, 50 mg/kg
  Luminescence Data: 0.3804 and 0.71 and 0.4932 and 0.01469 and 1.521 and 0.2588
[9]; treatment day 75, day 0 = 1, 50 mg/kg
  Luminescence Data: 0.2695 and 0.603 and 0.5415 and 0.02346 and 1.537 and 0.2239
[9]; treatment day 82, day 0 = 1, 50 mg/kg
  Luminescence Data: 0.477 and 0.7647 and 0.421 and 0.02545 and 2.278 and 0.2761
[9]; treatment day 89, day 0 = 1, 50 mg/kg
  Luminescence Data: 0.4292 and 0.858 and 0.6342 and 0.04079 and 3.665 and 0.3289
[9]; treatment day 96, day 0 = 1, 50 mg/kg
  Luminescence Data: 0.3189 and 0.6963 and 0.5402 and 0.01338 and 5.016 and 0.1926
[9]; treatment day 103, day 0 = 1, 50 mg/kg
  Luminescence Data: 0.4201 and 0.6542 and 0.7489 and 0.02359 and 6.915 and 0.2847
[9]; treatment day 110, day 0 = 1, 50 mg/kg
  Luminescence Data: 0.2991 and 0.6305 and 0.5409 and 0.02851
In vivo
  Kp: 1.8
  Kp uu: 1.3
LUAD-0057AS1 PDX; 50 mg per kg BID
  tumor shrinkage: 44% ± 3%
LUAD-0057AS1 PDX; 50 mg/kg BID
  Area Under Curve of tumor growth, Mean: -1274
LUAD-0057AS1 PDX; 50 mg/kg BID, day 0, individual animals
  Tumor volume: 141.55 mm3 and 150.43 mm3 (2×) and 137.16 mm3 and 152.81 mm3 and 132.84 mm3 and 139.24 mm3 and 143.69 mm3
LUAD-0057AS1 PDX; 50 mg/kg BID, day 3, individual animals
  Tumor volume: 107.44 mm3 and 102.07 mm3 (2×) and 103.92 mm3 and 105.68 mm3 (2×) and 109.36 mm3 and 109.21 mm3
LUAD-0057AS1 PDX; 50 mg/kg BID, day 7, individual animals
  Tumor volume: 86.78 mm3 and 84.95 mm3 (2×) and 83.53 mm3 and 93.45 mm3 and 76.27 mm3 and 91.61 mm3 and 79.29 mm3
LUAD-0057AS1 PDX; 50 mg/kg BID, day 10, individual animals
  Tumor volume: 71.99 mm3 and 84.95 mm3 and 77.63 mm3 and 80.7 mm3 (2×) and 69.38 mm3 and 74.9 mm3 and 72.18 mm3
